Laboratory results from PubChem BioAssay AID1259407 (Chemical Carcinogenesis Research Information System (CCRIS), 2018).
Activity calls are given as the source filed them. No rule for the calls is given here.

System: CCRIS mutagenicity, Ames/micronucleus/aberration tests
Assay: CCRIS mutagenicity studies

How did the mutagenic call (End Point: IN VITRO CHROMOSOMAL ABERRATIONS, Test System: RAT HEPATOCYTES, Metabolic Activation: NONE) turn out when CCCCCC/C=C/C=O was run?
The mutagenic call was “inactive; negative”.

What about the mutagenic call (End Point: IN VITRO MICRONUCLEUS, Test System: RAT HEPATOCYTES, Metabolic Activation: NONE) of the same compound?
The mutagenic call was “inactive; negative”.

And the mutagenic call (Test System: CHINESE HAMSTER V-79, Strain/Indicator: V-79/6-THIOGUANINE, Metabolic Activation: NONE, Method: STANDARD PLATE)?
The mutagenic call was “active; positive”.

What about the mutagenic call (Test System: CHINESE HAMSTER V-79, Strain/Indicator: V-79/OUABAIN, Metabolic Activation: NONE, Method: STANDARD PLATE) of the same compound?
Its mutagenic call is “inactive; negative”.

Which results are given for C=C1[C@@H](O)[C@@H]2O[C@]3(CC[C@H](/C=C/[C@@H](C)[C@@H]4CC(C)=C[C@@]5(O[C@H](C[C@@](C)(O)C(=O)O)CCC5O)O4)O3)CC[C@H]2O[C@@H]1[C@@H](O)C[C@H](C)[C@H]1O[C@@]2(CCCCO2)CC[C@H]1C (stereo partly specified)?
mutagenic call (End Point: IN VITRO MICRONUCLEUS, Test System: HUMAN PERIPHERAL LYMPHOCYTES, Metabolic Activation: NONE): active; positive; mutagenic call (End Point: In vitro micronucleus, Test System: Chinese hamster ovary (CHO-K1) cells, Metabolic Activation: None): inactive; negative; mutagenic call (End Point: In vitro micronucleus, Test System: Chinese hamster ovary (CHO-K1) cells, Metabolic Activation: Rat, Liver, S-9, Phenobarbital and beta-naphthoflavone): active; positive; mutagenic call (End Point: In vitro micronucleus, Test System: Chinese hamster ovary (CHO-K1) cells, Metabolic Activation: Rat, Liver, S-9, Phenobarbital and beta-naphthoflavone, heat inactivated): inactive; negative; mutagenic call (End Point: In vitro micronucleus, Test System: Chinese hamster ovary (CHO-K1) cells, Metabolic Activation: Rat, Liver, S-9, Phenobarbital and beta-naphthoflavone, Method: FISH (fluorescein isothiocyanate isomer 1 (FITC)-conjugated peptide nucleic acid probe)): active; positive (dose-dependent increase in percentage of centromer-positive micronucle; mutagenic call (End Point: In vitro micronucleus, Test System: Human colon carcinoma Caco-2 cells, Metabolic Activation: None): active; positive; mutagenic call (Test System: AMES SALMONELLA TYPHIMURIUM, Strain/Indicator: TA98, Metabolic Activation: S-9, Method: PREINCUBATION): inactive; negative; mutagenic call (Test System: AMES SALMONELLA TYPHIMURIUM, Strain/Indicator: TA100, Metabolic Activation: S-9, Method: PREINCUBATION): inactive; negative; mutagenic call (Test System: CHINESE HAMSTER V-79, Strain/Indicator: V-79 (HGPRT)/6-THIOGUANINE, Metabolic Activation: NONE): active; positive; mutagenic call (Test System: CHINESE HAMSTER V-79, Strain/Indicator: V-79 (HGPRT)/6-THIOGUANINE, Metabolic Activation: RAT, LIVER, HEPATOCYTES): inactive; negative

OCCN(CCO)c1ccc2ccccc2c1 was tested. Which mutagenic call (Test System: AMES SALMONELLA TYPHIMURIUM, Strain/Indicator: TA100, Metabolic Activation: NONE, Method: STANDARD PLATE) did it give?
Its mutagenic call is “inactive; negative”.

What about the mutagenic call (Test System: AMES SALMONELLA TYPHIMURIUM, Strain/Indicator: TA100, Metabolic Activation: RAT, LIVER, S-9, AROCLOR (10%), Method: STANDARD PLATE) of the same compound?
The mutagenic call was “active; positive”.

Which mutagenic call (Test System: MOUSE LYMPHOMA, Strain/Indicator: L5178Y (TK+/TK-), Metabolic Activation: NONE, Method: SUSPENSION/PLATE) does the source give for CC(CCC(=O)O)(c1ccc(O)cc1)c1ccc(O)cc1 here?
The mutagenic call was “active; positive”.

And the mutagenic call (Test System: MOUSE LYMPHOMA, Strain/Indicator: L5178Y (TK+/TK-), Metabolic Activation: RAT LIVER S-9, AROCLOR, Method: SUSPENSION/PLATE)?
The mutagenic call was “active; positive”.

For O=S(=O)(O)O.[NH-]CC1(C[NH-])CCCCC1.[Pt+2], which mutagenic call (Test System: CHINESE HAMSTER, Strain/Indicator: V-79/6-THIOGUANINE (HGPRT), Metabolic Activation: NONE, Method: STANDARD PLATE) is on record?
Its mutagenic call is “active; positive”.

How did the mutagenic call (Test System: AMES SALMONELLA TYPHIMURIUM, Strain/Indicator: TA97A, Metabolic Activation: NONE, Method: STANDARD PLATE) turn out when COc1ccccc1/C=C/C=C(/C#N)c1ccc(Br)cc1 was run?
Its mutagenic call is “active; positive”.

CC(=O)Nc1cc(N(CCOC(C)=O)CCOC(C)=O)ccc1N=Nc1ccc([N+](=O)[O-])cc1Cl was tested. Which mutagenic call (End Point: IN VITRO CHROMOSOMAL ABERRATIONS, Test System: CHL CELLS, Metabolic Activation: NONE) did it give?
The mutagenic call was “inactive; negative”.

What about the mutagenic call (End Point: IN VITRO CHROMOSOMAL ABERRATIONS, Test System: CHL CELLS, Metabolic Activation: RAT, LIVER, S-9, SODIUM PHENOBARBITAL AND 5,6-BENZOFLAVONE) of the same compound?
Its mutagenic call is “inactive; negative”.

With CN(C)c1ccc(N=Nc2ccc3ncsc3c2)cc1 as the compound, how does the mutagenic call (Test System: AMES SALMONELLA TYPHIMURIUM, Strain/Indicator: TA98, Metabolic Activation: RAT, LIVER, S-9, AROCLOR 1254, Method: PREINCUBATION) read?
The mutagenic call was “active; positive”.

What about the mutagenic call (Test System: AMES SALMONELLA TYPHIMURIUM, Strain/Indicator: TA98, Metabolic Activation: RAT, LIVER, S-9, AROCLOR, Method: PREINCUBATION) of the same compound?
Its mutagenic call is “active; positive”.

And the mutagenic call (Test System: AMES SALMONELLA TYPHIMURIUM, Strain/Indicator: TA98, Metabolic Activation: RAT, LIVER, S-9, AROCLOR, Method: STANDARD PLATE)?
The mutagenic call was “active; positive”.

What about the mutagenic call (Test System: AMES SALMONELLA TYPHIMURIUM, Strain/Indicator: TA98, Metabolic Activation: RAT, LIVER, S-9, Method: PREINCUBATION) of the same compound?
The mutagenic call was “active; positive”.

What about the mutagenic call (Test System: UDS RAT HEPATOCYTES, Strain/Indicator: THY INCORP, Metabolic Activation: NONE, Method: AUTORADIOGRAPHY) of the same compound?
Its mutagenic call is “active; positive”.

And the mutagenic call (Test System: UDS RAT HEPATOCYTES, Strain/Indicator: THY INCORP, Metabolic Activation: NONE, Method: IN VIVO)?
Its mutagenic call is “active; positive”.

And the mutagenic call (Test System: UDS RODENT HEPATOCYTES, Strain/Indicator: THY INCORP (NON-S-PHASE), Metabolic Activation: NONE, Method: AUTORADIOGRAPHY)?
Its mutagenic call is “active; positive”.

Which mutagenic call (Test System: AMES SALMONELLA TYPHIMURIUM, Strain/Indicator: TA100, Metabolic Activation: NONE, Method: PREINCUBATION) does the source give for CCC(C)[N+](=O)[O-] (stereo unspecified) here?
The mutagenic call was “inactive; negative”.

What about the mutagenic call (Test System: AMES SALMONELLA TYPHIMURIUM, Strain/Indicator: TA100, Metabolic Activation: RAT, LIVER, S-9, AROCLOR, Method: PREINCUBATION) of the same compound?
The mutagenic call was “inactive; negative”.

And the mutagenic call (Test System: AMES SALMONELLA TYPHIMURIUM, Strain/Indicator: TA102, Metabolic Activation: NONE, Method: PREINCUBATION)?
The mutagenic call was “inactive; negative”.

And the mutagenic call (Test System: AMES SALMONELLA TYPHIMURIUM, Strain/Indicator: TA102, Metabolic Activation: RAT, LIVER, S-9, AROCLOR, Method: PREINCUBATION)?
The mutagenic call was “inactive; negative”.

What about the mutagenic call (Test System: E. COLI, Strain/Indicator: WP2 UVRA (PKM101), Metabolic Activation: NONE, Method: PREINCUBATION) of the same compound?
Its mutagenic call is “active; positive”.

And the mutagenic call (Test System: E. COLI, Strain/Indicator: WP2 UVRA (PKM101), Metabolic Activation: RAT, LIVER, S-9, KANECHLOR 1254, Method: PREINCUBATION)?
Its mutagenic call is “active; positive”.

What about the mutagenic call (Test System: UDS RAT HEPATOCYTES, Strain/Indicator: THY INCORP, Metabolic Activation: NONE) of the same compound?
Its mutagenic call is “active; positive”.

Which mutagenic call (Test System: AMES SALMONELLA TYPHIMURIUM, Strain/Indicator: TA100, Metabolic Activation: RAT, LIVER, S-9, Method: PREINCUBATION) does the source give for Cc1c(Cl)cnc2ccccc12 here?
The mutagenic call was “inactive; negative”.

Which mutagenic call (Test System: AMES SALMONELLA TYPHIMURIUM, Strain/Indicator: TA98, Metabolic Activation: NONE) does the source give for COc1cccc2c1C(=O)c1c(O)c3c(c(O)c1C2=O)C[C@@](O)(C(=O)CO)CC3O[C@H]1C[C@H](N(C)C)[C@H](O)[C@H](C)O1 (stereo partly specified) here?
The mutagenic call was “inactive; negative”.

What about the mutagenic call (Test System: AMES SALMONELLA TYPHIMURIUM, Strain/Indicator: TA98, Metabolic Activation: RAT, LIVER, S-9, AROCLOR 1254) of the same compound?
The mutagenic call was “inactive; negative”.

And the mutagenic call (Test System: AMES SALMONELLA TYPHIMURIUM, Strain/Indicator: TA102, Metabolic Activation: NONE, Method: STANDARD PLATE)?
Its mutagenic call is “active; positive”.

And the mutagenic call (Test System: UDS RAT HEPATOCYTES, Strain/Indicator: THY INCORP, Metabolic Activation: NONE, Method: AUTOMATIC COLONY COUNTER)?
Its mutagenic call is “active; positive”.
